“Also recorded” adds a separate entry of the source. Read-outs that look alike come from different tables or passages of the source. Residues, ends and D or L forms follow the SMILES beside them. *: point of attachment. Cbz = O=C(OCc1ccccc1)*; CH2F = FC*
How the values were obtained:
[1] = tested on: Hela cells; assay: 3-day in vitro proliferation assay, AlamarBlue, Hela cells; assay type: cell-based; settings: for anti cancer efficacy in combination with TH-302: HeLa cervical cell line
Experimental: (§1) After a wash to remove drugs, cells were incubated with fresh media at 37° C. for an additional 3 days in the presence of a Chk1 inhibitor. Cell viability was determined using AlamarBlue. For a doxorubicin group (doxorubicin also induces cell cycle arrest in the G2/M phase and was used as a non-hypoxia activated prodrug control), cells were co-treated with doxorubicin and Chk1 inhibitors for 3 days.

[2] = tested on: HT29 cells; assay: 3-day in vitro proliferation assay, AlamarBlue, HT29 cells; assay type: cell-based; settings: for anti cancer efficacy in combination with TH-302: HT-29 colon cell line
Experimental: as §1

[3] = tested on: H460 cells; assay: 3-day in vitro proliferation assay, AlamarBlue, H460 cells; assay type: cell-based; settings: for anti cancer efficacy in combination with TH-302: H460 non-small cell lung cell line; for change of activity by the presence of Chk1 inhibitors: H460, p53 wild type
Experimental: as §1

[4] = tested on: HT-29 tumor; assay: HT29 xenograft antitumor activity; assay type: in vivo; settings: HT-29 tumor-bearing mice, i.p., drug alone (TH-302 50 mg/kg QD×5/wk×2 wks or 100 mg/kg twice/wk×2 wks; AZD7762 12.5 mg/kg)
[5] = tested on: γH2AX; assay: γH2AX immunofluorescence (DNA damage response); assay type: cell-based; settings: p53−/− HT29 cells; 2 hr normoxic or hypoxic, then 4 hr; AZD7762 0.1 μM
Experimental: HT29 cells were permeabilized with 1% Triton X-100 and incubated with γH2AX monoclonal antibody for 2 hr and goat anti-mouse-FITC for 1 hr. Cells were imaged using a fluorescent microscope (Nikon TS-100).

[6] = tested on: HT29 cells; assay: Luminescence-based caspase activity assay (Caspase Glo3/7), apoptosis; assay type: cell-based; settings: for induction of apoptosis: TH-302 0-10 μM air, 0-1 μM N2, AZD7762 0.1 μM, 2 hr + 46 hr
Experimental: Induction of apoptosis was also assessed. HT29 cells were seeded at a density of 40,000 cells per well of a 24 well plate. […] A luminescence-based caspase activity assay was performed. […] To validate the specificity of apoptotic signal, the pan-caspase inhibitor ZVAD was included in the testing.

[7] = target: Chk2 (Homo sapiens, UniProt O96017); settings: read-out: IC50 for Chk2; cited from earlier work
[8] = tested on: Du145 cells; assay: 3-day in vitro proliferation assay, AlamarBlue, Du145 cells; assay type: cell-based; settings: Du145, p53 heterozygous
Experimental: as §1
Appropriate Du145 and H460 cells were treated with TH-302 and Chk1 inhibitors as described in Example 1.

[9] = tested on: p53 deficient cells; assay: Proliferation assay in p53 deficient cells (Horizon Discovery); assay type: cell-based
Experimental: as §1
(§2) Cells (provided by Horizon Discovery Ltd. and generated using Horizon's adeno-associated virus (AAV) technology Genesis™) were treated as described in Example 1.

[10] = tested on: p53 proficient cells; assay: Proliferation assay in p53 proficient cells (Horizon Discovery); assay type: cell-based
Experimental: as §1, §2

[11] = tested on: Hela cells; assay: Cell cycle distribution by flow cytometry; assay type: cell-based
Experimental: (§3) HeLa cells were treated with TH-302 and a Chk1 inhibitor as described in Example 1. Cells were harvested and analyzed for cell cycle distribution by flow cytometry and for protein expression by immunoblot.

[12] = tested on: Cdc2-Y15 phosphorylation; assay: Immunoblot of Cdc2-Y15 phosphorylation and protein expression; assay type: cell-based; settings: for Cdc2-Y15 phosphorylation / DNA damaging agent-induced increase of Cdc2-Y15 phosphorylation in the presence of the Chk1 inhibitor: HeLa; for Cdc2-Y15 phosphorylation: agent alone; for DNA damaging agent-induced increase of Cdc2-Y15 phosphorylation in the presence of the Chk1 inhibitor: with Chk1 inhibitor
Experimental: as §3

[13] = tested on: AA8 CHO cells; assay: Cytotoxicity in HDR proficient AA8 CHO cells; assay type: cell-based; settings: Cricetulus griseus
Experimental: as §1
(§4) To investigate which DNA repair system is affected by Chk-1 inhibitor-mediated enhancement of TH-302 cytotoxicity, CHO cell-based DNA repair mutant cell line pairs were utilized. The experimental details were as described in Example 1. […] HDR (homology-dependent repair) is the specific type of DNA repair capable of repairing TH-302-induced DNA damage.

[14] = tested on: irs1SF; assay: Cytotoxicity in HDR deficient irs1SF cells; assay type: cell-based
Experimental: as §1, §4

[15] = tested on: UV41; assay: Cytotoxicity in HDR deficient UV41 cells; assay type: cell-based
Experimental: as §1, §4

[16] = tested on: Rad51; assay: Immunoblot of Rad51 expression; assay type: cell-based; settings: HT29; samples as for the Histone H3 blot
Experimental: To explore involved signaling pathways, an immunoblot analysis was conducted. HT29 cells were seeded in p60 dishes at a density of 2×10^6 cells per dish and incubated overnight for cell attachment. […] Insoluble debris was pelleted and the protein concentration of the resulting supernatant determined using a Sigma BCA kit (St. Louis, Mo.). About 10 μg of protein from each sample were loaded onto and SDS gel and electrophoresed and then electrotransferred to a nitrocellulose membrane. Proteins were detected with an electrochemiluminescent detection system (ChemiGlow; Protein Simple, Santa Clara, Calif.) using antibodies recognizing Histone H3.
The samples were collected as described above for the Histone H3 blot. In response to TH-302, Rad51 expression levels were increased.

Chain of Chk2 (O96017 whole entry): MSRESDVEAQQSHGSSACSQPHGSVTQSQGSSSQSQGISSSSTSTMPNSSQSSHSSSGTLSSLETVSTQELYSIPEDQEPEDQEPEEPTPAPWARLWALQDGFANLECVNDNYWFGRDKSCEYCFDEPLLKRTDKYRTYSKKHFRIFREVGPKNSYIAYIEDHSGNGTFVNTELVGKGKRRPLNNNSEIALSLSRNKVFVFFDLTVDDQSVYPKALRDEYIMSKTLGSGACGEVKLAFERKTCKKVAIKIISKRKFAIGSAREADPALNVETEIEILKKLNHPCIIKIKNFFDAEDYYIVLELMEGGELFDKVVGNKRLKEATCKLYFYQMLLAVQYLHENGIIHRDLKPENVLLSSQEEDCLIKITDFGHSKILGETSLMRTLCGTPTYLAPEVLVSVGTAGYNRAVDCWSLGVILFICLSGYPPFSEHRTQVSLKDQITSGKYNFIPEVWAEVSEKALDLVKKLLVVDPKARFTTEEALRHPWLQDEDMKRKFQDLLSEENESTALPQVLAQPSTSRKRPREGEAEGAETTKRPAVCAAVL

NC(=O)Nc1cc(-c2cccc(F)c2)sc1C(=O)N[C@H]1CCCNC1 [AZD7762]
anti cancer efficacy in combination with TH-302 [1]: increased anti cancer efficacy
anti cancer efficacy in combination with TH-302 [2]: increased anti cancer efficacy
anti cancer efficacy in combination with TH-302 [3]: not
tumor growth [4]: produced a growth delay
γH2AX staining [5]: could induce γH2AX
induction of apoptosis [6]: slight increase
IC50 [7]: < 0.01 µM

Cc1cnc(NC(=O)Nc2cc(Br)c(C)cc2OC[C@@H]2CNCCO2)cn1 [LY2603618]
anti cancer efficacy in combination with TH-302 [1]: increased anti cancer efficacy
anti cancer efficacy in combination with TH-302 [2]: increased anti cancer efficacy
anti cancer efficacy in combination with TH-302 [3]: not

Cn1c(COP(=O)(NCCBr)NCCBr)cnc1[N+](=O)[O-] [TH-302]
enhancement of TH-302 activity by the presence of a Chk1 inhibitor ([1]; Hela, p53-deficient, any one of PF477736, AZD7762, LY2603618): 15 to 50 fold
change of activity by the presence of Chk1 inhibitors ([1]; Hela, 0.4 μM PF477736, 0.1 μM AZD7762 or 0.5 μM LY2603618, normoxia or hypoxia): significantly enhanced
enhancement of TH-302 activity by the presence of a Chk1 inhibitor ([2]; HT29, p53-deficient, any one of PF477736, AZD7762, LY2603618): 15 to 50 fold
change of activity by the presence of Chk1 inhibitors ([2]; HT29, 0.4 μM PF477736, 0.1 μM AZD7762 or 0.5 μM LY2603618, normoxia or hypoxia): significantly enhanced
change of activity by the presence of Chk1 inhibitors [3]: not enhanced; also recorded: not affected
change of activity by the presence of Chk1 inhibitors [8]: not enhanced
change of activity by co-treatment with a Chk1 inhibitor [9]: significantly enhanced
change of activity by co-treatment with a Chk1 inhibitor [10]: not
cell cycle arrest ([11]; agent alone): concentration-dependent cell cycle arrest at G2/M
TH-302-mediated G2/M arrest in the presence of the Chk1 inhibitor ([11]; with Chk1 inhibitor): abrogated
expression of Cdc-2, Myt1 and Chk1 [12]: does not affect
Cdc2-Y15 phosphorylation [12]: upregulate phosphorylation of Cdc2-Y15
DNA damaging agent-induced increase of Cdc2-Y15 phosphorylation in the presence of the Chk1 inhibitor [12]: completely eliminated
tumor growth [4]: produced a growth delay
γH2AX staining [5]: could induce γH2AX
induction of apoptosis [6]: did not induce apoptosis
IC50 ([13]; AA8, N2, read-out: IC50 of TH-302 monotherapy): 3.2 µM
IC50 ([13]; AA8, N2, with AZD7762 (0.1 μM), read-out: TH-302 IC50): 1.2 µM
IC50 ([13]; AA8, air, read-out: IC50 of TH-302 monotherapy): 490 µM
IC50 ([13]; AA8, air, with AZD7762 (0.1 μM), read-out: TH-302 IC50): 260 µM
IC50 ([14]; N2, read-out: IC50 of TH-302 monotherapy): 0.4 µM
IC50 ([14]; N2, with AZD7762 (0.1 μM), read-out: TH-302 IC50): 0.3 µM
IC50 ([14]; air, read-out: IC50 of TH-302 monotherapy): 54 µM
IC50 ([14]; air, with AZD7762 (0.1 μM), read-out: TH-302 IC50): 63 µM
IC50 ([15]; UV41, N2, with AZD7762 (0.1 μM), read-out: TH-302 IC50): 0.06 µM
IC50 ([15]; UV41, N2, read-out: IC50 of TH-302 monotherapy): 0.07 µM
IC50 ([15]; UV41, air, with AZD7762 (0.1 μM), read-out: TH-302 IC50): 26 µM
IC50 ([15]; UV41, air, read-out: IC50 of TH-302 monotherapy): 29 µM
Rad51 expression levels [16]: increased

CC(NC(=O)C(NC(=O)OCc1ccccc1)C(C)C)C(=O)NC(CC(=O)O)C(=O)CF (stereo not drawn) [ZVAD] (Cbz-Val-Ala-Asp-CH2F; configuration not given here)
apoptotic signal generated by the combination therapy ([6]; added to TH-302 and AZD7762): reduced the apoptotic signal

COc1cccc2c1C(=O)c1c(O)c3c(c(O)c1C2=O)C[C@@](O)(C(=O)CO)C[C@@H]3O[C@H]1C[C@H](N)[C@H](O)[C@H](C)O1 [doxorubicin, reference compound]
change of activity by the presence of Chk1 inhibitors [3]: lack of enhanced activity
change of activity by the presence of Chk1 inhibitors [8]: lack of enhanced activity
Cdc2-Y15 phosphorylation [12]: upregulate phosphorylation of Cdc2-Y15
DNA damaging agent-induced increase of Cdc2-Y15 phosphorylation in the presence of the Chk1 inhibitor [12]: completely eliminated

PF477736
anti cancer efficacy in combination with TH-302 [1]: increased anti cancer efficacy
anti cancer efficacy in combination with TH-302 [2]: increased anti cancer efficacy
anti cancer efficacy in combination with TH-302 [3]: not

Reference: patent US9254299B2, “Administration of hypoxia activated prodrugs in combination with Chk1 inhibitors for treating cancer” (THRESHOLD PHARMACEUTICALS, INC., priority 2011, dated 2016)
